Here are results for four compounds from US4371537A, “Sulfur-substituted phenoxypyridines having antiviral activity” (The Dow Chemical Company, priority 1981, dated 1983).

The subject of this test is 20 different rhinoviruses. Nature of the test: Summary of WI-38 tissue culture testing against 20 rhinoviruses. The class given is cell-based. The note with it: of 20 rhinoviruses. The procedure: The test compound was dissolved in an appropriate solvent (generally dimethyl sulfoxide) and incubated at 56° C. for at least 15 minutes and this solution was then used to prepare various test solutions having the desired concentration of test compound in preheated WI maintenance medium (49% Eagles, 49% medium 199, 2% fetal calf serum and antibiotics).
Triplicate cell culture tubes (WI-38 human embryonic lung cell culture tubes) were fed with 1 ml of medium containing the compound at specified concentrations and inoculated with 3-300 TCID50 (3-300 times the tissue culture infective dose 50, i.e., the dose required to infect 50% of the cell cultures tested). Simultaneous viral titrations were performed. The tissue cultures were supplemented with fresh medium when necessary (around 3-4 days) until viral titrations were completed.
The cell culture tubes were examined dialy for cytopathic effect. […] Comparisons were made at that time with the percentage of cell sheet destruction in tubes containing virus compound mixtures. Observed differences of 75% or more were graded "+", 74-50% as "±", and less than 50% as "-" inhibition.

For the compound `CCS(=O)(=O)c1ccc(Oc2ccc(Cl)c(Cl)c2)nc1` [2-(3,4-dichlorophenoxy)-5-(ethylsulfonyl)pyridine], where the note is “25 μg/ml”, the “number of test rhinoviruses against which the compound was graded "+"” value amounted to 14 test rhinoviruses and the “number of test rhinoviruses against which the compound was graded "±"” value was 3.
As to `CS(=O)(=O)c1ccc(Oc2ccc(Cl)c(Cl)c2)nc1` [2-(3,4-dichlorophenoxy)-5-(methylsulfonyl)pyridine], under “25 μg/ml”, the “number of test rhinoviruses against which the compound was graded "+"” value turned out to be 14 test rhinoviruses and the “number of test rhinoviruses against which the compound was graded "±"” value is 2.
Turning to `CCS(=O)(=O)c1ccc(Oc2ccc(Cl)cc2)nc1` [2-(4-chlorophenoxy)-5-(ethylsulfonyl)pyridine], where the note is “12.5 μg/ml”, the “number of test rhinoviruses against which the compound was graded "+"” value is given as 13 test rhinoviruses and the “number of test rhinoviruses against which the compound was graded "±"” value is on record as 4.
Take `CS(=O)(=O)c1ccc(Oc2ccc(Cl)cc2)nc1` [2-(4-chlorophenoxy)-5-(methylsulfonyl)pyridine]: under “12.5 μg/ml”, the “number of test rhinoviruses against which the compound was graded "+"” value was 13 test rhinoviruses and the “number of test rhinoviruses against which the compound was graded "±"” value was found to be 3.
